{"source": "paper PMC4508061", "about": "“Selectivity Profiling and Biological Activity of Novel β-Carbolines as Potent and Selective DYRK1 Kinase Inhibitors” (PLoS ONE, 2015)", "test_in_all_cases": "ProQinase radiometric kinase panel", "conditions_in_all_cases": "mean of 2 exp.", "key": {"TSF1": {"molecular_target": "TSF1 (Homo sapiens, UniProt O75716)"}, "PIM2": {"molecular_target": "PIM2 (Homo sapiens, UniProt Q9P1W9)"}, "p38-alpha": {"molecular_target": "p38-alpha (Homo sapiens, UniProt Q16539)"}, "TSK2": {"molecular_target": "TSK2 (Homo sapiens, UniProt Q96PF2)", "sequence (Q96PF2 whole entry)": "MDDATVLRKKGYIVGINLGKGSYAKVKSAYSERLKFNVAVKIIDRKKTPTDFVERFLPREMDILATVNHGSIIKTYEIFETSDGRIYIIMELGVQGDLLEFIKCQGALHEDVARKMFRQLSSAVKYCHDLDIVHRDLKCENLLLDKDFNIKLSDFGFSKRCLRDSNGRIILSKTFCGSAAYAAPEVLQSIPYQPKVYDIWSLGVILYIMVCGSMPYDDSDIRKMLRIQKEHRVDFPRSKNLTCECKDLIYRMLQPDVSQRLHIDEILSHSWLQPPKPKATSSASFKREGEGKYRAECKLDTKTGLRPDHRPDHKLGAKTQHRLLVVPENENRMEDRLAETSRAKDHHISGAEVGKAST"}, "STK39": {"molecular_target": "STK39 (Homo sapiens, UniProt Q9UEW8)"}, "NIK": {"molecular_target": "NIK (Homo sapiens, UniProt Q99558)"}, "EPHB3": {"molecular_target": "EPHB3 (Homo sapiens, UniProt P54753)"}, "DCAMKL2": {"molecular_target": "DCAMKL2 (Homo sapiens, UniProt Q8N568)"}, "HIPK3": {"molecular_target": "HIPK3 (Homo sapiens, UniProt Q9H422)"}, "PIM3": {"molecular_target": "PIM3 (Homo sapiens, UniProt Q86V86)"}, "S6K-beta": {"molecular_target": "S6K-beta (Homo sapiens, UniProt Q9UBS0)", "sequence (Q9UBS0 whole entry)": "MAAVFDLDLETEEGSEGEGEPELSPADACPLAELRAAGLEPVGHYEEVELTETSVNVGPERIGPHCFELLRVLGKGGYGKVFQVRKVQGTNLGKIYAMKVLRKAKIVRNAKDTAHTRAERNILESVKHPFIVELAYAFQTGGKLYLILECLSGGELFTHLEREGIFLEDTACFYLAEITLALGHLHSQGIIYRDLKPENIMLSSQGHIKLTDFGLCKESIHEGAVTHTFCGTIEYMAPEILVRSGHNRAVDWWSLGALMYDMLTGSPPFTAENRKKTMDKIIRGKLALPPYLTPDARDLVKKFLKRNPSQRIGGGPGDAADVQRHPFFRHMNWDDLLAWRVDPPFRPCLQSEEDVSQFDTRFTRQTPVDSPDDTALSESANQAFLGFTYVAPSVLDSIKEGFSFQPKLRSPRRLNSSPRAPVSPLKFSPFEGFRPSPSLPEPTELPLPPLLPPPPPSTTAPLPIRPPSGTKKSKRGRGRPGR"}, "CK1-alpha1": {"molecular_target": "CK1-alpha1 (Homo sapiens, UniProt P48729)"}, "MELK": {"molecular_target": "MELK (Homo sapiens, UniProt Q14680)"}, "PRK1": {"molecular_target": "PRK1 (Homo sapiens, UniProt Q16512)"}, "MEK1": {"molecular_target": "MEK1 (Homo sapiens, UniProt Q02750)", "sequence (Q02750 whole entry)": "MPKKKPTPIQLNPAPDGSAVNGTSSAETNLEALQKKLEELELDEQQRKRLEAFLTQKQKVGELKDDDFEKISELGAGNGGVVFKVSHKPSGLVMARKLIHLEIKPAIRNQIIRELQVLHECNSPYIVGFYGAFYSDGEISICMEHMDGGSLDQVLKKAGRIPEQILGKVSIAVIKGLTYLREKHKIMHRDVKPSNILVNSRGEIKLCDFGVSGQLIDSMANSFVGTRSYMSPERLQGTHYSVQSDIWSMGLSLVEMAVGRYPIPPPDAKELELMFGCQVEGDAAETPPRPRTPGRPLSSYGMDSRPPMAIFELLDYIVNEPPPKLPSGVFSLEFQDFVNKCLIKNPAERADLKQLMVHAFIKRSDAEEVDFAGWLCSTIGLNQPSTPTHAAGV"}, "PAK6": {"molecular_target": "PAK6 (Homo sapiens, UniProt Q9NQU5)"}, "WNK3": {"molecular_target": "WNK3 (Homo sapiens, UniProt Q9BYP7)"}, "EPHA8": {"molecular_target": "EPHA8 (Homo sapiens, UniProt P29322)"}, "CK1-gamma1": {"molecular_target": "CK1-gamma1 (Homo sapiens, UniProt Q9HCP0)"}, "PRKG1": {"molecular_target": "PRKG1 (Homo sapiens, UniProt Q13976)", "sequence (Q13976 whole entry)": "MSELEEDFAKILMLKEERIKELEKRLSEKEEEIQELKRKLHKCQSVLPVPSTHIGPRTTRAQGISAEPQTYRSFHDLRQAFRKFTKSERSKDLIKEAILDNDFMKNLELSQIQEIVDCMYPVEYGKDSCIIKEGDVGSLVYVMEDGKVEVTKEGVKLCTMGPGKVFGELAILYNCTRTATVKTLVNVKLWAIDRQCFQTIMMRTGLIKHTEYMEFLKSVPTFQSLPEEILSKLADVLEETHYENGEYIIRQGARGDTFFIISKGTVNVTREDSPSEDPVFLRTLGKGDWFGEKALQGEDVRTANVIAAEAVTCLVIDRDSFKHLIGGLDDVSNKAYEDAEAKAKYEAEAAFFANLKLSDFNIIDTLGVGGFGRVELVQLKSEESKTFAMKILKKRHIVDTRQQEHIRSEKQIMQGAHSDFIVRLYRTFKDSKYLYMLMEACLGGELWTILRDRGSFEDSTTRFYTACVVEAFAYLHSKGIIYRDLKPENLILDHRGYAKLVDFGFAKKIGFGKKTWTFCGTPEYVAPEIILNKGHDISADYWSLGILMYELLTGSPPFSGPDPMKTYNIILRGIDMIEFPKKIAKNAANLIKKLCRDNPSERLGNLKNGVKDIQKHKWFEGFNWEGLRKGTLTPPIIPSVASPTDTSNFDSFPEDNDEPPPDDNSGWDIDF"}, "MYLK3": {"molecular_target": "MYLK3 (Homo sapiens, UniProt Q32MK0)"}, "RET": {"molecular_target": "RET (Homo sapiens, UniProt P07949)"}, "PBK": {"molecular_target": "PBK (Homo sapiens, UniProt Q96KB5)"}, "SNF1LK2": {"molecular_target": "SNF1LK2 (Homo sapiens, UniProt Q9H0K1)"}, "VEGF-R1": {"molecular_target": "VEGF-R1 (Homo sapiens, UniProt P17948)"}, "PKC-zeta": {"molecular_target": "PKC-zeta (Homo sapiens, UniProt Q05513)"}, "RON": {"molecular_target": "RON (Homo sapiens, UniProt Q04912)"}, "NEK7": {"molecular_target": "NEK7 (Homo sapiens, UniProt Q8TDX7)"}, "STK25": {"molecular_target": "STK25 (Homo sapiens, UniProt O00506)", "sequence (O00506 whole entry)": "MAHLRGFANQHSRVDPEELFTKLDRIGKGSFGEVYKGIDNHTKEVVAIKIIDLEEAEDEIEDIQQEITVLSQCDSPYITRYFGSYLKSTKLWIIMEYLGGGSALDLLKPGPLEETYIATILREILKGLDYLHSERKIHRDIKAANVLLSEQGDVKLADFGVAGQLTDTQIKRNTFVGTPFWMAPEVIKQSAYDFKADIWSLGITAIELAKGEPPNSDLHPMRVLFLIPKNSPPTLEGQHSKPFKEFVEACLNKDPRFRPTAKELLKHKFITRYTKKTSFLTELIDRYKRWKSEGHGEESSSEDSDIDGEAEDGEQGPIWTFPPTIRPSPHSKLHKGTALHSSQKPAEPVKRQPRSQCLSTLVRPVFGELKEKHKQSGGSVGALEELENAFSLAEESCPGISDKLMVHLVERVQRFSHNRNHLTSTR"}, "IKK-beta": {"molecular_target": "IKK-beta (Homo sapiens, UniProt O14920)"}, "TRK-C": {"molecular_target": "TRK-C (Homo sapiens, UniProt Q16288)"}, "PAK1": {"molecular_target": "PAK1 (Homo sapiens, UniProt Q13153)"}, "CDC42BPB": {"molecular_target": "CDC42BPB (Homo sapiens, UniProt Q9Y5S2)"}, "SRPK2": {"molecular_target": "SRPK2 (Homo sapiens, UniProt P78362)"}, "TLK1": {"molecular_target": "TLK1 (Homo sapiens, UniProt Q9UKI8)"}, "BRK": {"molecular_target": "BRK (Homo sapiens, UniProt Q13882)", "sequence (Q13882 whole entry)": "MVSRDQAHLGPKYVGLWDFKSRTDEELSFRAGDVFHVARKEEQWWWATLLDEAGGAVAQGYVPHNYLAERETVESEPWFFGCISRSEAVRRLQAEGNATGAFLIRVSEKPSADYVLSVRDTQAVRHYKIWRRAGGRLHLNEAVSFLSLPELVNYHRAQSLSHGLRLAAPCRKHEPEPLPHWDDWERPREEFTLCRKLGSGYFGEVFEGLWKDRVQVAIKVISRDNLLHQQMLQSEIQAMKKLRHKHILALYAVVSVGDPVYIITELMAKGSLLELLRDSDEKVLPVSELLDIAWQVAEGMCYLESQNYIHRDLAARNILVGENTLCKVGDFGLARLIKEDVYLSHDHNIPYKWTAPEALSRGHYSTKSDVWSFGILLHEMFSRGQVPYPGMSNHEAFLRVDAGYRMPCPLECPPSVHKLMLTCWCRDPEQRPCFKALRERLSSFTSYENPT"}, "EPHA3": {"molecular_target": "EPHA3 (Homo sapiens, UniProt P29320)", "sequence (P29320 21-983)": "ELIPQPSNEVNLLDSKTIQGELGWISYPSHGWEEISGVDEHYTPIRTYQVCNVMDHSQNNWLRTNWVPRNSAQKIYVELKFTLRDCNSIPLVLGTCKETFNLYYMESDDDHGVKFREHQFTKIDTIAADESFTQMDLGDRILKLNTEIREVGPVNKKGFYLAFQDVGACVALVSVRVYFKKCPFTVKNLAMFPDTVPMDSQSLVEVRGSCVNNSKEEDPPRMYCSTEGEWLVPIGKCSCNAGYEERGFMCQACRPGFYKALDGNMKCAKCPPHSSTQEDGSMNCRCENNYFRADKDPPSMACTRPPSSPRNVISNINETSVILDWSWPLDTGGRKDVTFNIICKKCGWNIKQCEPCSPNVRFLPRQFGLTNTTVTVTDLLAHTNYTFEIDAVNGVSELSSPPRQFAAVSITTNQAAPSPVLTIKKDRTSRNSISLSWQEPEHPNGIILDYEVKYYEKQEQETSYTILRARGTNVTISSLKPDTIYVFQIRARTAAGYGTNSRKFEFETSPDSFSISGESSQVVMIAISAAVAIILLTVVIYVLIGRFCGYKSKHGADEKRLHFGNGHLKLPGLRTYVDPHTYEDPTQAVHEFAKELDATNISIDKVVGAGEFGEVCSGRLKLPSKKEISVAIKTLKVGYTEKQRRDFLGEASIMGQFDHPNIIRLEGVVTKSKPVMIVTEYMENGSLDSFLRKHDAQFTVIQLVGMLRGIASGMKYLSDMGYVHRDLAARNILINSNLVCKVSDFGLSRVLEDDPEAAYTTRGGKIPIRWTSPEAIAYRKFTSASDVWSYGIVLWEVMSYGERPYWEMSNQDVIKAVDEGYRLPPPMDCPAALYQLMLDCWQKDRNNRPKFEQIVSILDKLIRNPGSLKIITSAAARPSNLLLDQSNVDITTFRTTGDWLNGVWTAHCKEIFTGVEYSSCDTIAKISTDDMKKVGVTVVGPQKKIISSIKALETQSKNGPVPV"}, "TGFB-R1": {"molecular_target": "TGFB-R1 (Homo sapiens, UniProt P36897)"}, "PAK2": {"molecular_target": "PAK2 (Homo sapiens, UniProt Q13177)"}, "TYK2": {"molecular_target": "TYK2 (Homo sapiens, UniProt P29597)", "sequence (P29597 whole entry)": "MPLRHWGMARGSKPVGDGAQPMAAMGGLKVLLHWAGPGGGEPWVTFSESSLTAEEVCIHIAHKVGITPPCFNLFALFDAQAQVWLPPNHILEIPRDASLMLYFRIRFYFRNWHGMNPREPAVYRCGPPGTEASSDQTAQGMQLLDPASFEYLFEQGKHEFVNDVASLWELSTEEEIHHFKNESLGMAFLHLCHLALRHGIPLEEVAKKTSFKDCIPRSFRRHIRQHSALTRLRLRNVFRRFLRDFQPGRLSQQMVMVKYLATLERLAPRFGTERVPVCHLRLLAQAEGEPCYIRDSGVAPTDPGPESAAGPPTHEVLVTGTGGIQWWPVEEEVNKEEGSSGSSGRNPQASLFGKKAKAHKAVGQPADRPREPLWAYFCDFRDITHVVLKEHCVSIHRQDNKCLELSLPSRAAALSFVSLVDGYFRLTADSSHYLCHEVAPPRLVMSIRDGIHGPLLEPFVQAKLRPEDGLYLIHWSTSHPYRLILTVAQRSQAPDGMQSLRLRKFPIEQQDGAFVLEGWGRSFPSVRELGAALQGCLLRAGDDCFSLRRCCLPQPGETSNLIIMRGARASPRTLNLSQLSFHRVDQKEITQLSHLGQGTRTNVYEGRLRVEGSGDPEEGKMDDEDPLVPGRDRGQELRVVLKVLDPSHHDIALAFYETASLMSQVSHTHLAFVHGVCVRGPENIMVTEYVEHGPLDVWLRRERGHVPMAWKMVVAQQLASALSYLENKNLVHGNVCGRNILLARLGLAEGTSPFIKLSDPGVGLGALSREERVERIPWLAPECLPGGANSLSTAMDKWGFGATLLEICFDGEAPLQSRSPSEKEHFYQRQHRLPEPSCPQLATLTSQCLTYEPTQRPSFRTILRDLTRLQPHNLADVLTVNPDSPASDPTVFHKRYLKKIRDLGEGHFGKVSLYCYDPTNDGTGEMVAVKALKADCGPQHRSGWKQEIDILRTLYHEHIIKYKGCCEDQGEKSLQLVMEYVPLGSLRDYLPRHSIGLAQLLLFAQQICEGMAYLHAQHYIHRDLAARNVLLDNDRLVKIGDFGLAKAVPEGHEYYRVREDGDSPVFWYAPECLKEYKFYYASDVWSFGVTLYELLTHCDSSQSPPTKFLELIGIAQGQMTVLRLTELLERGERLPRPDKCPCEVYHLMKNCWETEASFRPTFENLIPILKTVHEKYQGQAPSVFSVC"}}, "data": [{"compound": "COc1ccc2c3ccnc(Cl)c3n(CC#N)c2c1", "note": "[AnnH75]", "values": [{"measurement": "residual activity at 1 µM, Mean", "setting": "TSF1", "value": "97 % of control"}, {"measurement": "residual activity at 1 µM, Mean", "setting": "PIM2", "value": "107 % of control"}, {"measurement": "residual activity at 1 µM, Mean", "setting": "p38-alpha", "value": "86 % of control"}, {"measurement": "residual activity at 1 µM, Mean", "setting": "TSK2", "value": "92 % of control"}, {"measurement": "residual activity at 1 µM, Mean", "setting": "STK39", "value": "85 % of control"}, {"measurement": "residual activity at 1 µM, Mean", "setting": "NIK", "value": "87 % of control"}, {"measurement": "residual activity at 1 µM, Mean", "setting": "EPHB3", "value": "96 % of control"}, {"measurement": "residual activity at 1 µM, Mean", "setting": "DCAMKL2", "value": "97 % of control"}, {"measurement": "residual activity at 1 µM, Mean", "setting": "HIPK3", "value": "88 % of control"}, {"measurement": "residual activity at 1 µM, Mean", "setting": "PIM3", "value": "44 % of control"}, {"measurement": "residual activity at 1 µM, Mean", "setting": "S6K-beta", "value": "102 % of control"}, {"measurement": "residual activity at 1 µM, Mean", "setting": "CK1-alpha1", "value": "90 % of control"}, {"measurement": "residual activity at 1 µM, Mean", "setting": "MELK", "value": "87 % of control"}, {"measurement": "residual activity at 1 µM, Mean", "setting": "PRK1", "value": "94 % of control"}, {"measurement": "residual activity at 1 µM, Mean", "setting": "MEK1", "value": "72 % of control"}, {"measurement": "residual activity at 1 µM, Mean", "setting": "PAK6", "value": "93 % of control"}, {"measurement": "residual activity at 1 µM, Mean", "setting": "WNK3", "value": "94 % of control"}, {"measurement": "residual activity at 1 µM, Mean", "setting": "EPHA8", "value": "89 % of control"}, {"measurement": "residual activity at 1 µM, Mean", "setting": "CK1-gamma1", "value": "92 % of control"}, {"measurement": "residual activity at 1 µM, Mean", "setting": "PRKG1", "value": "87 % of control"}, {"measurement": "residual activity at 1 µM, Mean", "setting": "MYLK3", "value": "94 % of control"}, {"measurement": "residual activity at 1 µM, Mean", "setting": "RET", "value": "89 % of control"}, {"measurement": "residual activity at 1 µM, Mean", "setting": "PBK", "value": "94 % of control"}, {"measurement": "residual activity at 1 µM, Mean", "setting": "SNF1LK2", "value": "91 % of control"}, {"measurement": "residual activity at 1 µM, Mean", "setting": "VEGF-R1", "value": "89 % of control"}, {"measurement": "residual activity at 1 µM, Mean", "setting": "PKC-zeta", "value": "97 % of control"}, {"measurement": "residual activity at 1 µM, Mean", "setting": "RON", "value": "96 % of control"}, {"measurement": "residual activity at 1 µM, Mean", "setting": "NEK7", "value": "93 % of control"}, {"measurement": "residual activity at 1 µM, Mean", "setting": "STK25", "value": "96 % of control"}, {"measurement": "residual activity at 1 µM, Mean", "setting": "IKK-beta", "value": "91 % of control"}, {"measurement": "residual activity at 1 µM, Mean", "setting": "TRK-C", "value": "87 % of control"}, {"measurement": "residual activity at 1 µM, Mean", "setting": "PAK1", "value": "103 % of control"}, {"measurement": "residual activity at 1 µM, Mean", "setting": "CDC42BPB", "value": "94 % of control"}, {"measurement": "residual activity at 1 µM, Mean", "setting": "SRPK2", "value": "106 % of control"}, {"measurement": "residual activity at 1 µM, Mean", "setting": "TLK1", "value": "91 % of control"}, {"measurement": "residual activity at 1 µM, Mean", "setting": "BRK", "value": "97 % of control"}, {"measurement": "residual activity at 1 µM, Mean", "setting": "EPHA3", "value": "105 % of control"}, {"measurement": "residual activity at 1 µM, Mean", "setting": "TGFB-R1", "value": "104 % of control"}, {"measurement": "residual activity at 1 µM, Mean", "setting": "PAK2", "value": "105 % of control"}, {"measurement": "residual activity at 1 µM, Mean", "setting": "TYK2", "value": "96 % of control"}]}]}
